Data published in PubChem BioAssay (NCI).
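The compound was tested at five concentrations on cells cultured in 96-well plates, with a 48-hour exposure period. GI50 = concentration required for 50% inhibition of growth. TGI: total growth inhibition.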

Tests used:
Experiment in all cases: NCI tumour cell line growth inhibition, 48 h
[1] = tested on: SNB-75 CNS
[2] = tested on: UACC-257 melanoma
[3] = tested on: NCI/ADR-RES ovarian
[4] = tested on: SF-268 CNS
[5] = tested on: SN12K1 renal
[6] = tested on: EKVX NSCLC
[7] = tested on: OVCAR-5 ovarian
[8] = tested on: HCT-116 colon
[9] = tested on: DLD-1 colon
[10] = tested on: COLO 205 colon
[11] = tested on: CCRF-CEM leukemia
[12] = tested on: A498 renal
[13] = tested on: HCC-2998 colon
[14] = tested on: P388 leukemia
[15] = tested on: MCF7 breast
[16] = tested on: HOP-18 NSCLC
[17] = tested on: OVCAR-4 ovarian
[18] = tested on: SK-MEL-5 melanoma
[19] = tested on: IGROV1 ovarian
[20] = tested on: SNB-78 CNS
[21] = tested on: MALME-3M melanoma
[22] = tested on: P388/ADR leukemia
[23] = tested on: DMS 114 small cell lung
[24] = tested on: HL-60(TB) leukemia
[25] = tested on: CAKI-1 renal
[26] = tested on: RPMI-8226 leukemia
[27] = tested on: MOLT-4 leukemia
[28] = tested on: NCI-H226 lung
[29] = tested on: A549 NSCLC
[30] = tested on: RXF 393 renal
[31] = tested on: NCI-H23 lung
[32] = tested on: LOX IMVI melanoma
[33] = tested on: K-562 leukemia
[34] = tested on: HT29 colon
[35] = tested on: SK-MEL-28 melanoma
[36] = tested on: KM12 colon
[37] = tested on: OVCAR-8 ovarian
[38] = tested on: NCI-H460 lung
[39] = tested on: UO-31 renal
[40] = tested on: SF-539 CNS
[41] = tested on: HOP-92 NSCLC
[42] = tested on: SNB-19 CNS
[43] = tested on: SW-620 colon
[44] = tested on: UACC-62 melanoma
[45] = tested on: HOP-62 NSCLC
[46] = tested on: XF 498 CNS
[47] = tested on: NCI-H522 lung
[48] = tested on: DMS 273 small cell lung
[49] = tested on: OVCAR-3 ovarian
[50] = tested on: U251 CNS
[51] = tested on: HCT-15 colon
[52] = tested on: SF-295 CNS
[53] = tested on: SK-OV-3 ovarian
[54] = tested on: SN12C renal
[55] = tested on: SK-MEL-2 melanoma
[56] = tested on: M19-MEL melanoma
[57] = tested on: TK-10 renal
[58] = tested on: RXF-631 renal
[59] = tested on: M14 melanoma
[60] = tested on: LXFL 529 NSCLC
[61] = tested on: KM20L2 colon
[62] = tested on: 786-0 renal
[63] = tested on: ACHN renal

Which results are given for `CCOC(=O)C(C)N1C(=O)c2ccccc2S1(=O)=O` (stereo not given)?
TGI [1]: > 100 µM; TGI [2]: > 100 µM; TGI [3]: > 100 µM; TGI [4]: > 100 µM; TGI [5]: > 100 µM; TGI [6]: > 100 µM; TGI [7]: > 100 µM; TGI [8]: > 100 µM; TGI [9]: > 100 µM; TGI [10]: > 100 µM; TGI [11]: > 100 µM; GI50 [12]: 29.1 µM; TGI [12]: > 100 µM; TGI [13]: > 100 µM; TGI [14]: > 100 µM; TGI [15]: > 100 µM; TGI [16]: > 100 µM; TGI [17]: > 100 µM; TGI [18]: > 100 µM; TGI [19]: > 100 µM; GI50 [20]: > 100 µM; TGI [20]: > 100 µM; TGI [21]: > 100 µM; TGI [22]: > 100 µM; TGI [23]: > 100 µM; TGI [24]: > 100 µM; TGI [25]: > 100 µM; TGI [26]: > 100 µM; TGI [27]: > 100 µM; TGI [28]: > 100 µM; TGI [29]: > 100 µM; GI50 [30]: > 100 µM; TGI [30]: > 100 µM; TGI [31]: > 100 µM; TGI [32]: > 100 µM; TGI [33]: > 100 µM; TGI [34]: > 100 µM; TGI [35]: > 100 µM; TGI [36]: > 100 µM; TGI [37]: > 100 µM; TGI [38]: > 100 µM; TGI [39]: > 100 µM; TGI [40]: > 100 µM; TGI [41]: > 100 µM; TGI [42]: > 100 µM; TGI [43]: > 100 µM; TGI [44]: > 100 µM; TGI [45]: > 100 µM; TGI [46]: > 100 µM; TGI [47]: > 100 µM; TGI [48]: > 100 µM; TGI [49]: > 100 µM; TGI [50]: > 100 µM; TGI [51]: > 100 µM; TGI [52]: > 100 µM; TGI [53]: > 100 µM; TGI [54]: > 100 µM; TGI [55]: > 100 µM; TGI [56]: > 100 µM

How did the TGI [57] turn out when `CC(=O)NC(CCCN(Cc1ccccc1)C(=O)N(C)N=O)C(=O)NCc1ccccc1` (stereo not given) was run?
Its TGI is over 100 µM.

What about the TGI [1] of the same molecule?
Its TGI is 91 µM.

And the TGI [2]?
The TGI was over 100 µM.

What about the TGI [4] of the same molecule?
The TGI was over 100 µM.

What about the TGI [6] of the same molecule?
Its TGI is over 100 µM.

What about the TGI [7] of the same molecule?
The TGI was over 100 µM.

What about the TGI [8] of the same molecule?
The TGI was over 100 µM.

And the TGI [9]?
The TGI was over 100 µM.

What about the TGI [10] of the same molecule?
The TGI was over 100 µM.

What about the TGI [11] of the same molecule?
The TGI was over 100 µM.

And the TGI [12]?
Its TGI is over 100 µM.

And the TGI [13]?
The TGI was over 100 µM.

And the TGI [58]?
Its TGI is over 100 µM.

What about the TGI [17] of the same molecule?
Its TGI is over 100 µM.

What about the TGI [18] of the same molecule?
Its TGI is over 100 µM.

And the TGI [19]?
Its TGI is over 100 µM.

And the TGI [59]?
The TGI was over 100 µM.

What about the TGI [60] of the same molecule?
Its TGI is over 100 µM.

And the TGI [20]?
Its TGI is over 100 µM.

And the TGI [21]?
Its TGI is over 100 µM.

And the TGI [23]?
Its TGI is over 100 µM.

What about the TGI [25] of the same molecule?
Its TGI is over 100 µM.

What about the TGI [26] of the same molecule?
Its TGI is over 100 µM.

And the TGI [27]?
The TGI was over 100 µM.

What about the TGI [28] of the same molecule?
The TGI was over 100 µM.

And the TGI [29]?
The TGI was over 100 µM.

What about the TGI [30] of the same molecule?
The TGI was over 100 µM.

What about the TGI [31] of the same molecule?
Its TGI is over 100 µM.

And the TGI [32]?
The TGI was over 100 µM.

What about the TGI [33] of the same molecule?
Its TGI is over 100 µM.

And the TGI [34]?
The TGI was over 100 µM.

What about the TGI [35] of the same molecule?
The TGI was over 100 µM.

And the TGI [36]?
Its TGI is over 100 µM.

And the TGI [37]?
Its TGI is over 100 µM.

What about the TGI [38] of the same molecule?
Its TGI is over 100 µM.

What about the TGI [39] of the same molecule?
The TGI was over 100 µM.

And the TGI [40]?
The TGI was over 100 µM.

And the TGI [41]?
The TGI was over 100 µM.

What about the TGI [42] of the same molecule?
The TGI was over 100 µM.

And the TGI [43]?
Its TGI is over 100 µM.

And the TGI [44]?
Its TGI is over 100 µM.

And the TGI [45]?
The TGI was over 100 µM.

And the TGI [46]?
Its TGI is over 100 µM.

And the TGI [47]?
The TGI was over 100 µM.

And the TGI [48]?
Its TGI is over 100 µM.

What about the TGI [49] of the same molecule?
Its TGI is over 100 µM.

What about the TGI [50] of the same molecule?
The TGI was over 100 µM.

And the TGI [61]?
The TGI was over 100 µM.

What about the TGI [51] of the same molecule?
The TGI was over 100 µM.

What about the TGI [62] of the same molecule?
Its TGI is over 100 µM.

What about the TGI [52] of the same molecule?
Its TGI is over 100 µM.

What about the TGI [63] of the same molecule?
Its TGI is over 100 µM.

What about the TGI [53] of the same molecule?
The TGI was over 100 µM.

And the TGI [54]?
Its TGI is over 100 µM.

And the TGI [55]?
Its TGI is over 100 µM.

What about the TGI [56] of the same molecule?
The TGI was over 100 µM.
